# In US20260265239A1, “CRYSTAL FORM OF 2,6-PIPERIDINEDIONE COMPOUND, AND PREPARATION METHOD THEREFOR AND USE THEREOF” (ZHANGZHOU PIEN TZE HUANG PHARMACEUTICAL CO., LTD., priority 2023, published 2026):
# Where a name gives a salt, the structure may show the parent alone.
# Assays:
# [1] = Pharmacokinetic evaluation in beagle dogs; type: in vivo
# Text: Male beagle dogs were selected as the experimental animals in this study. The LC/MS/MS method was employed to quantitatively determine the plasma drug concentrations at different time points after intravenous injection or intragastric administration of the test compound, aiming to evaluate the pharmacokinetic characteristics of the compound of the present disclosure in beagle dogs.
# Beagle dogs (male, 7 to 10 kg, Beijing Mars Biotechnology Co., Ltd.).
# A solution of the test compound was slowly injected intravenously into beagle dogs (fed) via the peripheral vein (vehicle: 5% DMSO/10% Solutol/85% H2O), or administered intragastrically to beagle dogs (fed). For intravenous administration, 0.5 mL of blood was collected from the peripheral vein at 0.083, 0.25, 0.5, 1, 2, 4, 6, 8, and 24 h after administration, placed in EDTA-2K anticoagulant tubes, and centrifuged at 3200 g for 10 minutes at 2 to 8° C. to separate the supernatant. For intragastric administration, 0.5 mL of blood was collected from the peripheral vein at 0.083, 0.25, 0.5, 1, 2, 4, 6, 8, and 24 h after administration, placed in EDTA-2K anticoagulant tubes, and centrifuged at 3200 g for 10 minutes at 2 to 8° C. to separate the supernatant. Plasma drug concentrations were determined by the LC-MS/MS method, and relevant pharmacokinetic parameters were calculated using Phoenix WinNonlin 6.3 or 8.3.5 pharmacokinetic software with non-compartmental model linear-log trapezoidal method.
# [2] = tested on: human diffuse large B-cell lymphoma TMD-8 cells; experiment: BALB/c nude mouse subcutaneous xenograft tumor model of human diffuse large B-cell lymphoma TMD-8 cells; type: in vivo, BALB/c nude mice; conditions: for Tumor Volume (Day 0) / Tumor Volume (Day 22): mean ± SEM
# Description: The antitumor effect of the test compound was evaluated using a BALB/c nude mouse subcutaneous xenograft tumor model of human diffuse large B-cell lymphoma TMD-8 cells.
# • 1. Experimental animals: BALB/c nude mice, female, 6 to 8 weeks old. Vital River Laboratory Animal Technology Co., Ltd. • 2. Cell line: Human diffuse large B-cell lymphoma TMD-8 cells (purchased from Shanghai Huzhen Industrial Co., Ltd.).
# Cell culture: Routine cell culture was conducted in RPMI-1640 medium containing 10% fetal bovine serum under 5% CO2 at 37° C. Cells were passaged based on cell growth conditions at a passage ratio of 1:3 to 1:4.
# Tumor cell inoculation and grouping: TMD-8 cells in the logarithmic growth phase were harvested, counted, and resuspended in a mixture of 50% serum-free RPMI-1640 medium and 50% Matrigel. The cell concentration was adjusted to 4.0×10^7 cells/mL. The cell suspension was placed in an ice box, aspirated using a 1-mL syringe, and injected subcutaneously into the right forelimb axilla of nude mice at 200 μL per animal (0.8×10^7 cells/mouse) to establish the TMD-8 xenograft tumor model. Administration was started when the average tumor volume reached approximately 160 mm^3. The day of grouping was designated as Day 1 (D1) of the experiment, and administration was started based on animal body weight.
# The pharmacodynamic experiment was conducted with a 7-day administration cycle, where the test compound was administered once daily intragastrically at 24-hour intervals, for a total of three cycles. During the experiment, animal body weight and tumor size were measured twice a week, and clinical symptoms were observed and recorded daily.
# The test compound was administered at doses of 10 mg/kg, 30 mg/kg, and 100 mg/kg, with the vehicle being 10% DMSO/10% Solutol HS15/80% water. Tumor volume (TV) was calculated using the formula: ½×a×b^2, where a and b represent the measured length and width of the tumor, respectively. The tumor growth inhibition rate (TGI, %) was calculated using the formula: TGI (%)=[1−(average tumor volume at the end of administration in a treatment group−average tumor volume at the beginning of administration in this treatment group)/(average tumor volume at the end of treatment in the vehicle control group−average tumor volume at the beginning of treatment in the vehicle control group)]×100%. The relative tumor proliferation rate (T/C, %) was calculated using the formula: T/C %=TRTV/CRTV[…] (TRTV: mean RTV of the treatment group; CRTV: mean RTV of the negative control group). The relative tumor volume (RTV) was calculated based on the tumor measurement results, with the formula RTV=Vt/V0, where V0 is the tumor volume measured at the time of grouping administration (i.e., Day 1), and Vt is the tumor volume at a certain measurement time. TRTV and CRTV were derived from data on the same day.
# The experimental data were calculated and subjected to relevant statistical processing using Microsoft Office Excel 2007 software. Unless otherwise specified, the data were expressed as mean±standard error (Mean±SE), and comparisons between groups were performed using t-tests.
# [3] = Intragastric administration, 5 mg/kg
# [4] = Intragastric administration, 15 mg/kg
# [5] = Intravenous Injection (0.5 mg/kg)
# [6] = 10 mg/kg intragastric once daily
# [7] = 30 mg/kg intragastric once daily
# [8] = 100 mg/kg intragastric once daily
smiles,measurement,setting,value
O=C1CCC(c2noc3ccc4c(NC(=O)CN5CCN(C[C@H]6CC[C@H](n7cc(NC(=O)c8coc(-c9ccnc(NCC%10CC%10)c9)n8)c(C(F)F)n7)CC6)CC5)cccc4c23)C(=O)N1 (some centres unmarked) [Hydrochloride of Compound of Formula (I)],Area Under the Drug-Time Curve (0-inf),[1]; [3],3.20 µM·h
same,Peak Concentration,[1]; [3],0.41 µM
same,Time to Peak Concentration,[1]; [3],4.00 h
same,Area Under the Drug-Time Curve (0-inf),[1]; [4],8.02 µM·h
same,Peak Concentration,[1]; [4],0.87 µM
same,Time to Peak Concentration,[1]; [4],4.00 h
same,Apparent Distribution Volume,[1]; [5],5.83 L/kg
same,Area Under the Drug-Time Curve (0-inf),[1]; [5],0.44 µM·h
same,T/C (Day 22),[2]; [6],58%
same,TGI (Day 22),[2]; [6],49%
same,Tumor Volume (Day 0),[2]; [6],161 ± 12 mm^3
same,Tumor Volume (Day 22),[2]; [6],714 ± 153 mm^3
same,T/C (Day 22),[2]; [7],34%
same,TGI (Day 22),[2]; [7],75%
same,Tumor Volume (Day 0),[2]; [7],160 ± 9 mm^3
same,Tumor Volume (Day 22),[2]; [7],430 ± 98 mm^3
same,T/C (Day 22),[2]; [8],23%
same,TGI (Day 22),[2]; [8],88%
same,Tumor Volume (Day 0),[2]; [8],160 ± 8 mm^3
same,Tumor Volume (Day 22),[2]; [8],291 ± 70 mm^3
